Results reported in PMC5454942, “The Potential of Triterpenoids from Loquat Leaves (Eriobotrya japonica) for Prevention and Treatment of Skin Disorder” (International Journal of Molecular Sciences, 2017).
Values after ≈ are worked out from the molar mass of the structure shown. Values joined by “and” are separate entries in the source; they are usually repeats but may differ in a detail not shown here. Equal values may be shown once. Read-outs that look alike come from different tables or passages of the source.

Assays:
B16 melanoma cells [1] = experiment: Anti-melanogenesis assay (melanin content); type: cell-based, mouse; details: for inhibition at 1 µg/mL: 1 μg/ml; for inhibition at 2.5 µg/mL: 2.5 μg/ml; for inhibition at 5 µg/mL: 5 μg/ml
Experimental: (§1) This assay was performed as described by Arung et al.. The mouse melanoma cell line B16 was obtained from the Riken Bioresource Center Cell Bank (Tsukuba, Japan). The B16 melanoma cells were maintained in Eagle’s Minimal Essential Medium (EMEM, Nissui Chemical, Tokyo) supplemented with 10% (v/v) fetal bovine serum (FBS; Gibco, Carlsbad, CA, USA) and 0.09 mg/mL theophylline (Sigma-Aldrich, St. Louis, MO, USA). […] After 24 h, test samples were dissolved in DMSO (<0.2% per well) and sample solution were added to each well. Arbutin (Tokyo Kasei Kogyo, Tokyo) was used as a positive control. The cells were incubated for an additional 48 h, and then the medium was replaced with fresh medium containing each sample again. After 24 h, the melanin content and the cell viability were measured using a microplate reader (BioTek-ELX800, BioTek Instruments, Winooski, VT, USA) at 405 nm and 570 nm, respectively. Cell viability was measured using the MTT (3-(4,5-dimethylthiazol-2-yl)-2,5-diphenyltetrazolium bromide) method.

[2] = Cell viability of RBL-2H3 cells (parallel MTT); type: cell-based, rat; details: rat; 25 μg/ml, RBL-2H3 cells; read-out: Cell viability
Experimental: (§2) The anti-allergy assay was based mostly on the methods described by Zhu et al. and Yun et al. with slight modification. Rat basophilic leukemia (RBL-2H3) cells were obtained from the Riken Bio-resource Center Cell Bank (Tsukuba, Japan). RBL-2H3 cells were incubated in EMEM medium containing 10% FBS and 1% antibiotics–antimycotics at 37 °C. The cells were seeded on a 96-well plate (2 × 10^5 cells/well). After 24 h of incubation, the medium was supplemented with 0.5 μg/mL anti-DNP (dinitrophenol) mouse immunoglobulin E (IgE) (Sigma-Aldrich). After an additional 24 h of incubation, the medium was replaced with 100 μL of Tyrode buffer. The sample dissolved in DMSO (<0.5% per well) was added, and the cell plate was incubated again for 30 min, then replaced with 100 μL of tyrode buffer containing 50 μg/mL DNP-bovine serum albumin (BSA) (Invitrogen, Carlsbad, CA, USA). After 1 h of incubation, 50 μL of the supernatant was collected from each well and mixed with 50 μL of substrate solution (p-nitrophenyl-N-acetyl-β-glucosaminide, 2 mM; Sigma-Aldrich) in a new 96-well plate. The mixture was incubated at room temperature on a shaker for 3 h. Finally, 100 μL of stop solution was added, and the absorbance was read at 405 nm. A parallel MTT experiment was performed to measure the cell viability. The MTT experiment was done exactly as described.

RBL-2H3 cells [3] = experiment: β-hexosaminidase release from IgE-stimulated RBL-2H3 mast cells; type: cell-based, rat; details: 25 μg/mL; for inhibition at 25 µg/mL: Rattus norvegicus, RBL-2H3, read-out: Inhibition Rate (β-hexosaminidase release)
Experimental: as §2

mushroom tyrosinase = experiment: Tyrosinase inhibition assay; type: biochemical; details: for inhibitory effect on tyrosinase (in words): L-DOPA as substrate; for inhibitory activity on tyrosinase (in words): L-tyrosine as substrate, relatively high concentrations
Experimental: Tyrosinase inhibition activity was evaluated by using L-tyrosine and L-DOPA as substrates, as described. Briefly, 333 μL of 2.5 mM L-tyrosine or L-DOPA solution (Sigma-Aldrich) was mixed with 600 μL of 0.1 M phosphate buffer (pH 6.8) and incubated at 25 °C. Then, 33 μL of the sample solution (dissolved in DMSO in various concentrations) and 33 μL of 1380 units/mL mushroom tyrosinase (Sigma-Aldrich) were added to the mixture. The optical density was measured at 475 nm up to the appropriate time. Kojic acid (Sigma-Aldrich) was used as the positive control; the final concentration is 3.3 μg/mL.

[4] = Cell viability of B16 melanoma cells (MTT); details: mouse
Experimental: as §1

B16 melanoma cells [5] = experiment: Cell viability of B16 melanoma cells (MTT); details: for Inhibition rate (100% − cell viability): B16 cells
Experimental: as §1

Propionibacterium acnes = experiment: Anti-bacterial assay (growth inhibition, MIC/MBC by broth microdilution); type: cell-based; details: for inhibition at 100 µg/mL: read-out: Inhibition Rate (P. acnes growth)
Experimental: The antibacterial assay was based mostly on the methods described by Tanaka et al. with slight modification. Propionibacterium acne (NBRC 107605) was used for the antibacterial assay. A single colony of the test strain was taken and 5 mL of Gifu anaerobic medium (GAM) broth (Nissui, Tokyo) was added to it. This culture was incubated at 37 °C for 30 h. It was then added to the bacterial suspension to prepare a bacterial concentration at 10^5 CFU/mL. The bacterial solution was used for the subsequent antibacterial assay. Each compound was dissolved in DMSO, and benzalkonium chloride (Wako) was used as a positive control. The plate was incubated at 37 °C for 30 h. Finally, bacterial growth was measured by a microplate reader at 630 nm. The MIC and MBC were evaluated by the standard broth microdilution method.

RBL-2H3 cells [6] = experiment: Cell viability of RBL-2H3 cells (parallel MTT); type: cell-based, rat; details: 25 μg/ml, RBL-2H3 cells
Experimental: as §2

NHDF cells = experiment: Skin type I collagen synthesis promoting assay (ELISA, with MTT); type: cell-based, human; details: 5 μg/mL, fold of control
Experimental: The assay for measuring the promotion of skin collagen synthesis was described by Kishikawa et al.. Adult NHDF cells (Lonza, Tokyo) were routinely maintained in 10% FBS and 1% antibiotic-antimycotic (Invitrogen) in Dulbecco’s modified Eagle’s medium (DMEM, Wako). After growing to confluence, cells at a density of 5 × 10^3 cells/well were seeded on 96-well plates for 24 h before the treatment. The medium was replaced with a mixture of 1 μL of sample solution (DMSO < 0.5% per well) and 99 μL of DMEM supplemented with 0.5% FBS. After 72 h of cultivation, the amount of collagen in the medium was measured using a human type I collagen enzyme-linked immunosorbent assay (ELISA) kit (ACEL, Kanagawa, Japan). The amount of collagen production was calculated using a standard curve prepared by measurement by the same ELISA. The cells remaining in the 96-well plate were subjected to an MTT assay. Ascorbic acid (100 μM, Wako) was used as a positive control.

[7] = Mus musculus, B16 cells, read-out: Inhibition rate (100% − melanin synthesis)
[8] = Mus musculus, 10 μg/ml, B16 cells, read-out: Inhibition rate (100% − melanin synthesis)
[9] = Mus musculus, B16 melanoma cells, read-out: IC50 (melanin synthesis)
[10] = Mus musculus, B16 melanoma cells, read-out: IC50 melanin
[11] = Cutibacterium acnes, concentration 100 μg/mL

Compound | S.I (selectivity index, CC50 value/IC50 value) (B16 melanoma cells [1]; B16 melanoma cells) | inhibition at 1 µg/mL (B16 melanoma cells [1]; [7]) | inhibition at 2.5 µg/mL (B16 melanoma cells [1]; [7]) | inhibition at 5 µg/mL (B16 melanoma cells [1]; [7]) | inhibition at 10 µg/mL (B16 melanoma cells [1]; [8]) | IC50 (B16 melanoma cells [1]; [9]) | IC50 (B16 melanoma cells [1]; [10]) | viability at 25 μg/ml [2] | inhibition at 25 µg/mL (RBL-2H3 cells [3]) | inhibitory effect on tyrosinase (in words) (mushroom tyrosinase) | inhibitory activity on tyrosinase (in words) (mushroom tyrosinase) | Inhibition rate (100% − cell viability) (B16 melanoma cells [5]; 1 μg/ml) | Inhibition rate (100% − cell viability) (B16 melanoma cells [5]; 2.5 μg/ml) | Inhibition rate (100% − cell viability) (B16 melanoma cells [5]; 5 μg/ml) | Inhibition rate (100% − cell viability) (B16 melanoma cells [5]; 10 μg/ml) | Inhibition rate (100% − cell viability) (B16 melanoma cells [5]; 20 μg/ml) | inhibition at 100 µg/mL (Propionibacterium acnes; [11]) | further results
CC1(C)CC[C@]2(C(=O)O)CC[C@]3(C)C(=CC[C@@H]4[C@@]5(C)CC[C@H](O)C(C)(C)[C@@H]5CC[C@]43C)[C@@H]2C1 [Compound 2, Oleanolic acid] | 1.5 | 9.5 ± 4.6% | 27.8 ± 4.8% | 33.5 ± 6% | 45.9 ± 1.5% | 26.8 µM | 12.2 µg/mL | 102 ± 6.2% | 5.8 ± 6.7% | no inhibitory effect | moderate inhibitory activity | 4.9 ± 4.6% | 7.8 ± 4.1% | 17.0 ± 6.2% | 27.4 ± 7.0% | 54.9 ± 2.3% | 100.4 ± 0.8% | inhibition at 20 µg/mL (B16 melanoma cells [1]; Mus musculus, 20 μg/ml, B16 cells, read-out: Inhibition rate (100% − melanin synthesis)): 58.6 ± 2.3%; CC50 at 72 h ([4]; B16 melanoma cells): 18.2 µg/mL and 39.9 µM; MBC (Propionibacterium acnes; Cutibacterium acnes, P. acnes, broth microdilution, read-out: MBC): 200 µg/mL (≈ 438 µM); MIC (Propionibacterium acnes; Cutibacterium acnes, P. acnes, broth microdilution, read-out: MIC): 100 µg/mL (≈ 219 µM); activity against P. acnes (in words) (Propionibacterium acnes; at their maximum solubility): active
C=C(C)[C@@H]1CC[C@]2(C(=O)O)CC[C@]3(C)[C@H](CC[C@@H]4[C@@]5(C)CC[C@H](O)C(C)(C)[C@@H]5CC[C@]43C)[C@@H]12 [Compound 4, Betulinic acid] | 1.4 | 35.4 ± 0.5% | 44.8 ± 1.4% | 49.7 ± 3.1% | 54 ± 3.3% | 11.8 µM | 5.3 µg/mL | 97.9 ± 10.6% | 29.4 ± 8.1% | no inhibitory effect | moderate inhibitory activity | 1.2 ± 12.0% | 20.8 ± 5.2% | 35.9 ± 5.2% | 58.4 ± 14.1% | 68.1 ± 11.4% | < 0% | inhibition at 0.5 µg/mL (B16 melanoma cells [1]; Mus musculus, 0.5 μg/ml, B16 cells, read-out: Inhibition rate (100% − melanin synthesis)): 23.2 ± 1.4%; CC50 at 72 h [4]: 7.6 µg/mL and 16.7 µM
C[C@@H]1CC[C@]2(C(=O)O)CC[C@]3(C)C(=CC[C@@H]4[C@@]5(C)C[C@@H](O)C(=O)C(C)(C)[C@@H]5CC[C@]43C)[C@@H]2[C@]1(C)O [Compound 15, 2α, 19α-dihydroxy-3-oxo-12-ursen-28-oic acid] |  |  |  |  |  |  |  |  |  |  |  |  |  | 5.6 ± 4.6% | 11.4 ± 3.9% | 26.4 ± 1.4% |  | Inhibition rate (100% − melanin synthesis) (B16 melanoma cells [1]; 10 μg/ml, B16 cells): 24.2 ± 1.0%; IC50 melanin (B16 melanoma cells [1]; B16 melanoma cells): > 20.0 µg/mL; IC50 (B16 melanoma cells [1]; B16 melanoma cells, read-out: IC50 (melanin synthesis)): > 42.3 µM; Cell viability (RBL-2H3 cells [6]): 102.1 ± 2.2%; Inhibition Rate (β-hexosaminidase release) (RBL-2H3 cells [3]): 0.9 ± 0.0%; CP/CV value (collagen production %/cell viability %) (NHDF cells): 1.1; CC50 cell viability (B16 melanoma cells [5]; B16 melanoma cells, MTT): > 20.0 µg/mL; CC50 (B16 melanoma cells [5]; read-out: CC50 (cell viability), B16 melanoma cells, MTT): > 42.3 µM; Inhibition Rate (P. acnes growth) (Propionibacterium acnes; concentration 100 μg/mL): – (no inhibition)
